ChEMBL document CHEMBL1212720, “Identification of the toxic trigger in mushroom poisoning” (Nat Chem Biol, 2009)

Legend:
[1] = Toxicity in po dosed mouse; assay type: organism-based; details: in vivo
Mus musculus [2] = experiment: Toxicity in po dosed ICR mouse assessed as decreased in mobility after 3 hrs; assay type: organism-based; details: in vivo
Homo sapiens [3] = organism: Homo sapiens; experiment: Cytotoxicity against human neuronal tumor cells at 100 ug/ml by MTT assay; assay type: functional, cell-based
[4] = Cytotoxicity against mouse hyphalamic cells at 100 ug/ml by MTT assay; assay type: cell-based
Serratia = experiment: Antibacterial activity against Serratia after 18 to 48 hrs by serial dilution method; assay type: functional
Enterococcus = experiment: Antibacterial activity against Enterococcus after 18 to 48 hrs by serial dilution method; assay type: functional
Escherichia = experiment: Antibacterial activity against Escherichia after 18 to 48 hrs by serial dilution method; assay type: functional
Mus musculus [5] = experiment: Induction of rhabdomyolysis in ICR mouse assessed as serum creatine […] level at 5 mg/kg, po after 4 hrs by spectrophotometry (reference value: 240 +/- 34 U/L); assay type: organism-based; set-up: dose 5 mg/kg, route oral; details: in vivo
Salmonella = experiment: Antibacterial activity against Salmonella after 18 to 48 hrs by serial dilution method; assay type: functional
Staphylococcus = experiment: Antibacterial activity against Staphylococcus after 18 to 48 hrs by serial dilution method; assay type: functional
Candida = experiment: Antifungal activity against Candida after 18 to 48 hrs by serial dilution method; assay type: functional
[6] = Antibacterial activity against Cryptococcus after 18 to 48 hrs by serial dilution method; assay type: functional
Micrococcus = experiment: Antibacterial activity against Micrococcus after 18 to 48 hrs by serial dilution method; assay type: functional
Klebsiella = experiment: Antibacterial activity against Klebsiella after 18 to 48 hrs by serial dilution method; assay type: functional
Shigella = experiment: Antibacterial activity against Shigella after 18 to 48 hrs by serial dilution method; assay type: functional
Pseudomonas = experiment: Antibacterial activity against Pseudomonas after 18 to 48 hrs by serial dilution method; assay type: functional
[7] = Chemical stability of the compound at 20 degC assessed as half life; assay type: physicochemical
Mus musculus [8] = experiment: Toxicity in ip dosed ICR mouse assessed as decreased in mobility after 3 hrs; assay type: organism-based; details: in vivo
Bacillus = experiment: Antibacterial activity against Bacillus after 18 to 48 hrs by serial dilution method; assay type: functional
Homo sapiens [9] = organism: Homo sapiens; experiment: Cytotoxicity against human astrocytoma cells at 100 ug/ml by MTT assay; assay type: functional, cell-based
Saccharomyces = experiment: Antifungal activity against Saccharomyces after 18 to 48 hrs by serial dilution method; assay type: functional
Mycobacterium = experiment: Antibacterial activity against Mycobacterium after 18 to 48 hrs by serial dilution method; assay type: functional
Proteus = experiment: Antibacterial activity against Proteus after 18 to 48 hrs by serial dilution method; assay type: functional
sarcoma = experiment: Cytotoxicity against human synovial sarcoma cells at 100 ug/ml by MTT assay; assay type: functional, cell-based
[10] = Cytotoxicity against mouse DRG neuron at 100 ug/ml by MTT assay
Corynebacterium = experiment: Antibacterial activity against Corynebacterium after 18 to 48 hrs by serial dilution method; assay type: functional
Mus musculus [11] = organism: Mus musculus; experiment: Cytotoxicity against mouse neuronal tumor cells at 100 ug/ml by MTT assay; assay type: functional, cell-based
Mus musculus [12] = experiment: Induction of rhabdomyolysis in ICR mouse assessed as serum creatine […] level at 70 mg/kg, po after 4 hrs by spectrophotometry (reference value: 240 +/- 34 U/L); assay type: organism-based; set-up: dose 70 mg/kg, route oral; details: in vivo
[13] = (§1) Toxicity in po dosed rat; assay type: organism-based; details: in vivo
Rattus norvegicus = experiment: as §1; assay type: organism-based; details: in vivo

## CC(=O)O [ACETIC ACID]
[1]
  LD50: 4960 mg/kg
Mus musculus [2]
  LD100: 2500 mg/kg

## CC1=CC1C(=O)O (centres undefined)
Mus musculus [2]
  LD100: 50 mg/kg

## C/C=C/C(=O)O [CROTONIC ACID]
[1]
  LD50: 400 mg/kg
Mus musculus [2]
  LD100: 2500 mg/kg

## O=C(O)C1C=C1
Homo sapiens [3]
  Activity: Not toxic
[4]
  Activity: Non-toxic
Serratia
  MIC: > 100 µg/mL
Enterococcus
  MIC: > 100 µg/mL
Escherichia
  MIC: > 100 µg/mL
Mus musculus [5]
  Activity: 3441 U/L
Salmonella
  MIC: > 100 µg/mL
Staphylococcus
  MIC: > 100 µg/mL
Candida
  MIC: > 100 µg/mL
[6]
  MIC: > 100 µg/mL
Micrococcus
  MIC: > 100 µg/mL
Klebsiella
  MIC: > 100 µg/mL
Shigella
  MIC: > 100 µg/mL
Pseudomonas
  MIC: > 100 µg/mL
[7]
  half-life: 20 h
Mus musculus [2]
  LD100: 2.5 mg/kg
Mus musculus [8]
  LD100: 2.5 mg/kg
Bacillus
  MIC: > 100 µg/mL
Homo sapiens [9]
  Activity: Not toxic
Saccharomyces
  MIC: > 100 µg/mL
Mycobacterium
  MIC: > 100 µg/mL
Proteus
  MIC: > 100 µg/mL
sarcoma
  Activity: Not toxic
[10]
  Activity: Non-toxic
Corynebacterium
  MIC: > 100 µg/mL
Mus musculus [11]
  Activity: Not toxic

## Nc1ccc(N)cc1
Mus musculus [12]
  Activity: 397 U/L

## CCC(=O)O [PROPIONIC ACID]
[1]
  LD50: 5100 mg/kg

## C#CC(=O)O [PROPIOLIC ACID]
[1]
  LD50: 100 mg/kg

## CC1=C(C)C1C(=O)O
Mus musculus [2]
  LD100: > 250 mg/kg

## CCCC(=O)O [BUTYRIC ACID]
Mus musculus [2]
  LD100: 5000 mg/kg
[13]
  LD50: 8790 mg/kg
Rattus norvegicus
  LDLO: 500 mg/kg

## C=C(C)C(=O)O [METHACRYLIC ACID]
[1]
  LD50: 1600 mg/kg
